Results: patent US20060079453A1, “Hla binding peptides and their uses” (priority 2002, published 2006)
Like-named read-outs stand apart in the source and are kept apart here. No end group written: not given here.

Key:
Test in all cases: biochemical
Format in all cases: binding
HLA-DR DRB1*0101 (DR1) = HLA-DR DRB1*0101 (DR1) (Homo sapiens, UniProt P01903+P01911, A100R/D57E/F55L/F60I/F76Y/I96L/L162R/M171V/P40L/Q125E/R42F/V115G/Y59C)
HLA-DR DRB1*0301 (DR3) = HLA-DR DRB1*0301 (DR3) (Homo sapiens, UniProt P01903+P01911, A100K/A102G/A103R/A169T/F55Y/I96L/K41T/L162R/M171V/P40S/Q125H/Q178H/Q39Y/R42S/S66N/T106N/T262R/W38E/Y61H)
HLA-DR DRB1*0401 (DR4) = HLA-DR DRB1*0401 (DR4) (Homo sapiens, UniProt P01903+P01911, A100K/A169T/F76Y/I96L/K127E/L162R/M171V/N62H/P40V/Q125Y/R42H/S133A/S149N/S66Y/V115G/V209L/W38E)
HLA-DR DRB1*0405 (DR4) = HLA-DR DRB1*0405 (DR4) (Homo sapiens, UniProt P01903+P01911, A100R/A169T/D86S/F76Y/I96L/K127E/L162R/M171V/N62H/P40V/Q125Y/R42H/S133A/S149N/S66Y/V115G/V209L/W38E)
HLA-DR DRB1*0701 (DR7) = HLA-DR DRB1*0701 (DR7) (Homo sapiens, UniProt P01903+P01911, A100R/A102G/A103Q/D57E/D86V/E43K/F76Y/K127E/L162R/M171V/P40G/Q125H/Q99D/R33Q/R42Y/R54Q/S133A/S66F/T210M/V115G/Y107V/Y59L/Y89S)
HLA-DR DRB1*0802 (DR8) = HLA-DR DRB1*0802 (DR8) (Homo sapiens, UniProt P01903+P01911, A100R/A103L/A169T/F76Y/H45Y/I96F/K41T/L162R/M171V/P40S/Q125H/Q178H/Q39Y/Q99D/R218S/R42G/S66Y/V115G/W38E)
HLA-DR DRB1*0901 (DR9) = HLA-DR DRB1*0901 (DR9) (Homo sapiens, UniProt P01903+P01911, A100R/A103E/D57H/D86V/F55Y/F60I/F76Y/I96F/K127E/L162R/M171V/P40D/Q125H/Q99R/R33Q/R42F/S133A/S66N/T210M/V115G/W38K/Y107V/Y59G/Y89S)
HLA-DR DRB1*1101 (DR11) = HLA-DR DRB1*1101 (DR11) (Homo sapiens, UniProt P01903+P01911, A100R/A169T/A87E/I96F/K41T/L162R/M171V/P40S/Q125H/Q178H/Q39Y/Q99D/R42S/S66Y/T262R/V115G/W38E)
HLA-DR DRB1*1302 (DR13) = HLA-DR DRB1*1302 (DR13) (Homo sapiens, UniProt P01903+P01911, A100E/A169T/K41T/L162R/M171V/P40S/Q125H/Q178H/Q39Y/Q99D/R42S/S66N/T262R/V115G/W38E/Y61H)
HLA-DR DRB1*1501 (DR15) = HLA-DR DRB1*1501 (DR15) (Homo sapiens, UniProt P01903+P01911)
HLA-DR DRB4*0101 (DR53) = HLA-DR DRB4*0101 (DR53) (Homo sapiens, UniProt P01903+P13762, G164S)
HLA-DR DRB5*0101 (DR51) = HLA-DR DRB5*0101 (DR51) (Homo sapiens, UniProt P01903+Q30154)
HLA-DR DRB3*0101 (DR52) = HLA-DR DRB3*0101 (DR52) (Homo sapiens, UniProt P01903+P79483)

Sequence of HLA-DR DRB1*1101 (DR11) (P01903 26-254 limits assumed, other chains not shown): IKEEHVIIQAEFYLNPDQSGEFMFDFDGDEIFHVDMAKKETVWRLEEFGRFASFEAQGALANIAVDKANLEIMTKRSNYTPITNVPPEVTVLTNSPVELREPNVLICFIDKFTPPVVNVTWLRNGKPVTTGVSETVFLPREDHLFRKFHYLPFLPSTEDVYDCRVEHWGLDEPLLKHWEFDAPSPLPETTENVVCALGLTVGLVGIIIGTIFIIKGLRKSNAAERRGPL
Sequence of HLA-DR DRB1*0301 (DR3) (P01903 26-254 limits assumed, other chains not shown): as above
Sequence of HLA-DR DRB1*1302 (DR13) (P01903 26-254 limits assumed, other chains not shown): as above

Compound | IC50 (HLA-DR DRB1*0101 (DR1); DRB1 *0101) [µM] | IC50 (HLA-DR DRB1*0301 (DR3)) [µM] | IC50 (HLA-DR DRB1*0401 (DR4); DRB1 *0401) [µM] | IC50 (HLA-DR DRB1*0405 (DR4); DRB1 *0405) [µM] | IC50 (HLA-DR DRB1*0701 (DR7); DRB1 *0701) [µM] | IC50 (HLA-DR DRB1*0802 (DR8)) [µM] | IC50 (HLA-DR DRB1*0901 (DR9); DRB1 *0901) [µM] | IC50 (HLA-DR DRB1*1302 (DR13); DRBI *1302) [µM] | IC50 (HLA-DR DRB1*1501 (DR15); DRBI *1501) [µM] | IC50 (HLA-DR DRB1*0405 (DR4)) [µM] | IC50 (HLA-DR DRB1*0701 (DR7)) [µM] | IC50 (HLA-DR DRB1*1302 (DR13)) [µM] | IC50 (HLA-DR DRB1*1501 (DR15)) [µM] | IC50 (HLA-DR DRB3*0101 (DR52)) [µM] | IC50 (HLA-DR DRB5*0101 (DR51)) [µM] | IC50 (HLA-DR DRB1*0101 (DR1)) [µM] | IC50 (HLA-DR DRB1*0401 (DR4)) [µM] | IC50 (HLA-DR DRB4*0101 (DR53)) [µM] | also measured
CC[C@H](C)[C@H](NC(=O)[C@H](CCC(=O)O)NC(=O)[C@@H](NC(=O)[C@H](Cc1ccc(O)cc1)NC(=O)[C@H](CCC(=O)O)NC(=O)[C@@H](N)CCC(=O)O)C(C)C)C(=O)N[C@@H](CCCNC(=N)N)C(=O)N[C@@H](CCC(N)=O)C(=O)N[C@H](C(=O)NCC(=O)N[C@@H](CC(=O)O)C(=O)N[C@@H](Cc1ccccc1)C(=O)N[C@@H](Cc1c[nH]cn1)C(=O)O)C(C)C | > 1.96 | 74.9 | > 5.37 | 0.026 | 11.3 | 13.9 | 11.2 | > 1.9 | 2.06 | – | – | – | – | – | – | – | – | – | IC50 (HLA-DR DRB1*1101 (DR11); DRB1 *1101): 4.68 µM; IC50 (HLA-DR DRB4*0101 (DR53); DRB4 *0101): 2.06 µM; IC50 (HLA-DR DRB5*0101 (DR51); DRB5 *0101): 9.75 µM
VASLLTTAEVVVTE | – | – | – | – | – | – | – | – | – | – | – | – | – | – | – | – | – | – | IC50 (HLA-DR DRB1*0301 (DR3); read-out: DRB1 *0301): 136 µM; IC50 (HLA-DR DRB1*0401 (DR4); read-out: DRB1 *0401): 7.43 µM; IC50 (HLA-DR DRB1*0405 (DR4); read-out: DRB1 *0405): 6.52 µM; IC50 (HLA-DR DRB1*0701 (DR7); read-out: DRB1 *0701): 0.369 µM; IC50 (HLA-DR DRB1*0802 (DR8); read-out: DRB1 *0802): > 118 µM; IC50 (HLA-DR DRB1*0901 (DR9); read-out: DRB1 *0901): 1.96 µM
ALWRVSAEEY | > 6.34 | > 76.6 | 6.54 | > 35.3 | 7.95 | 4.1 | 0.698 | > 6.4 | > 15.3 | – | – | – | – | – | – | – | – | – | IC50 (HLA-DR DRB1*1101 (DR11); DRB1 *1101): 0.243 µM; IC50 (HLA-DR DRB4*0101 (DR53); DRB4 *0101): > 7.93 µM; IC50 (HLA-DR DRB5*0101 (DR51); DRB5 *0101): > 35.6 µM
FLRIVQTRSVEGSTGF | 0.0064 | 3.94 | 0.011 | 0.099 | 0.0098 | 0.445 | 0.778 | 0.0015 | 0.0098 | – | – | – | – | – | – | – | – | – | –
GAALGGAARALAHGV | – | 26.9 | – | – | – | – | – | – | – | > 13 | 29.8 | 19.3 | 4.48 | > 71 | 25.4 | – | – | – | IC50 (HLA-DR DRB1*1101 (DR11)): 0.168 µM
VGGVALLPRRGPRLGV | – | 326 | – | – | – | – | – | – | – | > 12.2 | 61.6 | > 15.4 | 0.0085 | > 66.5 | 20.5 | 0.849 | 48.2 | 25.7 | –
CCTSICSLYQLENY | – | – | – | – | – | – | – | – | – | – | – | – | – | – | – | – | – | – | IC50 (HLA-DR DRB1*0301 (DR3); read-out: DRB1 *0301): 71.2 µM; IC50 (HLA-DR DRB1*0401 (DR4); read-out: DRB1 *0401): 8.38 µM; IC50 (HLA-DR DRB1*0405 (DR4); read-out: DRB1 *0405): 0.629 µM; IC50 (HLA-DR DRB1*0701 (DR7); read-out: DRB1 *0701): 35.6 µM; IC50 (HLA-DR DRB1*0802 (DR8); read-out: DRB1 *0802): > 54.4 µM; IC50 (HLA-DR DRB1*0901 (DR9); read-out: DRB1 *0901): 29.8 µM
AYVLLSEKKISSIQS | 0.078 | – | 0.943 | 9.47 | 3.85 | 0.027 | 3.34 | 0.816 | 0.489 | – | – | – | – | – | – | – | – | – | IC50 (HLA-DR DRB1*1101 (DR11); DRB1 *1101): 0.051 µM; IC50 (HLA-DR DRB4*0101 (DR53); DRB4 *0101): 0.902 µM; IC50 (HLA-DR DRB5*0101 (DR51); DRB5 *0101): 4.52 µM
GAPLGGLARALAHGV | – | 352 | – | – | – | – | – | – | – | > 13 | 0.066 | 0.076 | – | 124 | 4.26 | 0.537 | 13.9 | 3.95 | IC50 (HLA-DR DRB1*1101 (DR11)): 0.012 µM
VGGAYLLPRRGPRLGV | – | 309 | – | – | – | – | – | – | – | > 12.2 | 0.703 | 24.7 | 0.0041 | > 66.5 | 0.05 | 0.131 | 26.2 | 37.6 | –
VGGVYLLARRGPRLGV | – | 23.3 | – | – | – | – | – | – | – | 2.2 | 0.595 | – | 0.0028 | 17 | 0.017 | 0.06 | 0.485 | 4.34 | IC50 (HLA-DR DRB1*1101 (DR11)): 0.0065 µM
